Measurements reported in patent publication US3933859A, “Dihydrocoumarin derivatives” (Hoffmann-La Roche, Inc., priority 1970, dated 1976).
Structures can show the parent of a compound that is named as a salt.

What was measured:
noradrenaline = noradrenaline content lowering after oral administration to rats; format: in vivo, rat; settings: five separate oral doses each 300 μmol/kg over 48 hours
Experimental: (§1) The novel compounds of formulae VII and VIII and their salts are useful for lowering the blood-pressure and for chemical sympathectomy. Thus, for example, after orally administering five separate doses each comprising 300 μmol/kg of L-6,7-diacetoxy-3-amino-hydrocoumarin hydrochloride to rats over a period of 48 hours, the noradrenaline content is lowered in the heart to 28% and in the brain to 85% of the controls. The LD50 of this hydrochloride amounts to 30-60 mg/kg i.v., 250-500 mg/kg s.c. and 1,000-2,000 mg/kg p.o.

[1] = LD50 of the hydrochloride; settings: in vivo
Experimental: as §1

CC(=O)Oc1cc2c(cc1OC(C)=O)OC(=O)[C@@H](N)C2 [L-6,7-diacetoxy-3-aminohydrocoumarin hydrochloride]
noradrenaline content in the brain, lowered to % of the controls (noradrenaline; brain): 85%
noradrenaline content in the heart, lowered to % of the controls (noradrenaline; heart): 28%
LD50 ([1]; iv): 30 to 60 mg/kg
LD50 ([1]; po): 1000 to 2000 mg/kg
LD50 ([1]; sc): 250 to 500 mg/kg
